Source: article PMC10589072, “Evaluation of Potential Peptide-Based Inhibitors against SARS-CoV-2 and Variants of Concern” (BioMed Research International, 2023)
Where no end group is shown, it is not given here.

Legend:
[1] = tested on: 293T ACE-2 SSC22 cells (HEK 293T expressing ACE2 receptor)
Experimental: The cytotoxicity of the peptides was assessed using a viability assay. […] Cells with peptides were cultured for 3 days, after which cell viability was measured using an ATP assay (Promega, G9681).

[2] = molecular target: T1, SARS-CoV-2 spike S1 protein (Severe acute respiratory syndrome coronavirus 2, UniProt P0DTC2); test: biochemical; type: binding
T1 construct: The fluorescent dye NT647 was used to label the SARS-CoV-2 spike S1; purchased Sino Biological 40591-V08H

For “IDWQFWFHYDKWDHEWEDEWYQSS-NH2 [Peptide P25]”, which “cytotoxicity” value ([1]; 0.125 to 4 mM, 72 hours, ATP assay, n = 3) is on record?
Its value is “low toxicity”.

And the cell viability ([1]; 72 h, 4 mM)?
The cell viability was 91-100%.

What about the “KD compared with ACE2-S protein affinity” value [2] of the same substance?
Its value is “comparable to the observed affinity between the S protein and ACE2”.

What about the Kd ([2]; 21°C, read-out: KD (constant of dissociation)) of the same substance?
The Kd was 0.0422 µM.
